Broadly, the IC50 is the concentration that inhibits the measured activity by half.

Consider 19 compounds from patent publication US11168080B2, “Dynamin-1-like protein inhibitors” (Mitobridge, Inc., priority 2017, dated 2021).

This assay concerns the target Drp1 (Homo sapiens (Human), UniProt O00429). The assay is described as follows: Drp1 Activity Screen: colorimetric (malachite green) GTPase assay. It counts as biochemical. Conditions: 1 mM GTP, 20 min at 37° C.; for IC50: GTPase activity, 0.6 μM Drp1 preincubated with 0.1 mg/mL liposomes; for max % inh: max % inhibition of Drp1 GTPase activity, 0.6 μM Drp1, 0.1 mg/mL liposomes. The method, then:
The GTPase activity of Drp1 was assayed using a colorimetric assay similar to as described previously by Leonard M. et al. “Robust colorimetric assays for dynamin's basal and stimulated GTPase activities.” Methods Enzymol. […] Briefly, for GTPase assays of purified Drp1 inhibitor samples, 0.6 μM Drp1 preincubated with 0.1 mg/mL liposomes (consisting of 80% soybean lipids/20% cardiolipin) and inhibitor was added to 1 mM GTP in a microtiter plate for 20 min at 37° C. in 4 mM MgCl2, 10 mM Hepes (pH 7.0), 100 mM KCl, 1 mM DTT. Reactions were stopped by diluting with 0.5 mM EDTA. Samples were then incubated with malachite green reagent (1 mM malachite green and 50 mM ammonium molybdate in 1 N HCl), and the absorbance at 650 nm was measured. The reaction rates, IC50 values, and max % inhibition were determined using Excel/GraphPad Prism software.

Drp1, sequence (O00429 whole entry): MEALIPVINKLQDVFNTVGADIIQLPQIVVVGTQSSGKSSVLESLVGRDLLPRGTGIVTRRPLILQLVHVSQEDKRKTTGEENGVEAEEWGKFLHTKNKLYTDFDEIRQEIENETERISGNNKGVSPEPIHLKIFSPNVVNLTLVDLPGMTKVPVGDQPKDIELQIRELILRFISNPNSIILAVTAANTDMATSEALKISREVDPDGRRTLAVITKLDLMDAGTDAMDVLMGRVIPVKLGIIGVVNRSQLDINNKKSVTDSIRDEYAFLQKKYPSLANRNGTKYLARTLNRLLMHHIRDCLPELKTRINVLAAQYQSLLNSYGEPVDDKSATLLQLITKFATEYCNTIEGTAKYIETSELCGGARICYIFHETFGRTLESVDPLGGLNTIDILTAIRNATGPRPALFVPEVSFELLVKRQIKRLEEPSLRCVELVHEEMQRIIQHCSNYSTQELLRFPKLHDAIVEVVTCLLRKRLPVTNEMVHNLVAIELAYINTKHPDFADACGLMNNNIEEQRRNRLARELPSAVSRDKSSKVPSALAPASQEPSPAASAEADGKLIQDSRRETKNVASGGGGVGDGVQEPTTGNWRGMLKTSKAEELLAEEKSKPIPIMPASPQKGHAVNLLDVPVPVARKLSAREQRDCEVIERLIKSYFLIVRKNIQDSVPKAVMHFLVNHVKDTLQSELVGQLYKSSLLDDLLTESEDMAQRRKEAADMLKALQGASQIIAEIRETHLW

For `Cc1cc(C(=O)Nc2ccc(-c3nn[nH]n3)cc2)n(Cc2csc(N3CCCCC3)n2)c1` [Compound A-7, N-(4-(1H-tetrazol-5-yl)phenyl)-4-methyl-1-((2-(piperidin-1-yl)thiazol-4-yl)methyl)-1H-pyrrole-2-carboxamide], the IC50 came out at 0.91 µM.

Take `Cc1cn(Cc2csc(N3CCCCC3)n2)c(C(=O)Nc2ccc(C(=O)O)cc2)c1C` [Compound A-68, 4-(3,4-dimethyl-1-((2-(piperidin-1-yl)thiazol-4-yl)methyl)-1H-pyrrole-2-carboxamido)benzoic acid]: the IC50 came out at 30.5 µM. The same measure, in the same setting: to `O=C(Nc1ccc(-c2nn[nH]n2)cc1)c1cc(-c2ccccc2)cn1Cc1csc(N2CCCCC2)n1` [Compound A-58, N-(4-(1H-tetrazol-5-yl)phenyl)-4-phenyl-1-((2-(piperidin-1-yl)thiazol-4-yl)methyl)-1H-pyrrole-2-carboxamide] belongs 2.2 µM; to `CC(=O)c1cc(C(=O)Nc2ccc(C(=O)O)cc2)n(Cc2csc(N3CCCCC3)n2)c1` [Compound A-56, 4-(4-acetyl-1-((2-(piperidin-1-yl)thiazol-4-yl)methyl)-1H-pyrrole-2-carboxamido)benzoic Acid], greater than 100 µM. With `Cc1cc(C(=O)Nc2ccc(-c3ccc(C(=O)O)cc3)cc2)n(Cc2csc(N3CCCCC3)n2)c1` [Compound A-71, 4′-(4-methyl-1-((2-(piperidin-1-yl)thiazol-4-yl)methyl)-1H-pyrrole-2-carboxamido)-[1,1′-biphenyl]-4-carboxylic Acid], it took 0.72 µM to reach half-maximal inhibition (IC50) and the max % inh is reported as 83%. The corresponding values for `O=C(Nc1ccc(CO)cc1)c1cc(Br)cn1Cc1csc(N2CCCCC2)n1` [Compound A-63, 4-bromo-N-(4-(hydroxymethyl)phenyl)-1-((2-(piperidin-1-yl)thiazol-4-yl)methyl)-1H-pyrrole-2-carboxamide] are 3.4 µM and 68%. Consider `Cc1cc(C(=O)Nc2ccccn2)n(Cc2csc(N3CCCCC3)n2)c1` [Compound A-30, 4-methyl-1-((2-(piperidin-1-yl)thiazol-4-yl)methyl)-N-(pyridin-2-yl)-1H-pyrrole-2-carboxamide], for which the IC50 amounted to 8.7 µM. Still for that read-out and setting: to `Cc1cc(C(=O)Nc2ccc(C(=O)O)cc2)n(Cc2csc(N3CCOCC3)n2)c1` [Compound A-12, 4-(4-methyl-1-((2-morpholinothiazol-4-yl)methyl)-1H-pyrrole-2-carboxamido)benzoic Acid] belongs 25 µM; to `Cc1cc(C(=O)Nc2ccc(C(=O)O)c(C)c2)n(Cc2csc(N3CCCCC3)n2)c1` [Compound A-61, 2-methyl-4-(4-methyl-1-((2-(piperidin-1-yl)thiazol-4-yl)methyl)-1H-pyrrole-2-carboxamido)benzoic Acid], 2.5 µM. On the same count and under the same terms, to `Cc1cc(C(=O)NC2CCCCC2)n(Cc2csc(N3CCCCC3)n2)c1` [Compound A-26, N-cyclohexyl-4-methyl-1-((2-(piperidin-1-yl)thiazol-4-yl)methyl)-1H-pyrrole-2-carboxamide] belongs 1.7 µM. For the compound `Cc1cc(C(=O)NCc2ccccc2)n(Cc2csc(N3CCCCC3)n2)c1` [Compound A-3, N-benzyl-4-methyl-1-((2-(piperidin-1-yl)thiazol-4-yl)methyl)-1H-pyrrole-2-carboxamide], the IC50 turned out to be 4.8 µM and the max % inh is recorded as 70%.

`Cc1cc(Cn2cc(C)cc2C(=O)Nc2ccc(C(=O)O)cc2)nc(N2CCCCC2)c1` [Compound A-69, 4-(4-methyl-1-((4-methyl-6-(piperidin-1-yl)pyridin-2-yl)methyl)-1H-pyrrole-2-carboxamido)benzoic Acid] returned an IC50 of 11.7 µM. The same measure, in the same setting: to `Cc1cc(C(=O)Nc2ccc(-c3c(C)noc3C)cc2)n(Cc2csc(N3CCCCC3)n2)c1` [Compound A-36, N-(4-(3,5-dimethylisoxazol-4-yl)phenyl)-4-methyl-1-((2-(piperidin-1-yl)thiazol-4-yl)methyl)-1H-pyrrole-2-carboxamide] belongs 1.4 µM. The same measure, in the same setting: to `CCN(CC)c1nc(Cn2cc(C)cc2C(=O)Nc2ccc(C(=O)O)cc2)cs1` [Compound A-9, 4-(1-((2-(diethylamino)thiazol-4-yl)methyl)-4-methyl-1H-pyrrole-2-carboxamido)benzoic Acid] belongs 51 µM; to `Cc1cc(C(=O)Nc2ccc(C(=O)O)cc2C)n(Cc2csc(N3CCCCC3)n2)c1` [Compound A-54, 3-Methyl-4-(4-methyl-1-((2-(piperidin-1-yl)thiazol-4-yl)methyl)-1H-pyrrole-2-carboxamido)benzoic acid], greater than 100 µM. Same read-out and setting: to `Cc1cc(C(=O)Nc2ccc(-c3nn[nH]n3)cc2)n(Cc2cccc(N3CCCCC3)n2)c1` [Compound A-67, N-(4-(1H-tetrazol-5-yl)phenyl)-4-methyl-1-((6-(piperidin-1-yl)pyridin-2-yl)methyl)-1H-pyrrole-2-carboxamide] belongs 2.1 µM; to `Cc1cc(C(=O)Nc2cccnc2)n(Cc2csc(N3CCCCC3)n2)c1` [Compound A-31, 4-methyl-1-((2-(piperidin-1-yl)thiazol-4-yl)methyl)-N-(pyridin-3-yl)-1H-pyrrole-2-carboxamide], 7.6 µM. Turning to `CC(=O)NS(=O)(=O)c1ccc(NC(=O)c2cc(C)cn2Cc2csc(N3CCCCC3)n2)cc1` [Compound A-6, N-(4-(N-acetylsulfamoyl)phenyl)-4-methyl-1-((2-(piperidin-1-yl)thiazol-4-yl)methyl)-1H-pyrrole-2-carboxamide], the IC50 came out at 5 µM and the max % inh was determined as 71%. Regarding `Cc1cc(C(=O)Nc2ccc(C(=O)O)cc2)n(Cc2nc(N3CCCCC3)sc2C)c1` [Compound A-21, 4-(4-methyl-1-((5-methyl-2-(piperidin-1-yl)thiazol-4-yl)methyl)-1H-pyrrole-2-carboxamido)benzoic Acid], half-maximal inhibition (IC50) required 11.9 µM.
